Counter-ions that a name gives are not always drawn.
Biological target: T1, Dopamine receptor D4 (Homo sapiens, UniProt P21917)
T1 construct: expressed in transfected cells
T1 sequence (P21917 1-419): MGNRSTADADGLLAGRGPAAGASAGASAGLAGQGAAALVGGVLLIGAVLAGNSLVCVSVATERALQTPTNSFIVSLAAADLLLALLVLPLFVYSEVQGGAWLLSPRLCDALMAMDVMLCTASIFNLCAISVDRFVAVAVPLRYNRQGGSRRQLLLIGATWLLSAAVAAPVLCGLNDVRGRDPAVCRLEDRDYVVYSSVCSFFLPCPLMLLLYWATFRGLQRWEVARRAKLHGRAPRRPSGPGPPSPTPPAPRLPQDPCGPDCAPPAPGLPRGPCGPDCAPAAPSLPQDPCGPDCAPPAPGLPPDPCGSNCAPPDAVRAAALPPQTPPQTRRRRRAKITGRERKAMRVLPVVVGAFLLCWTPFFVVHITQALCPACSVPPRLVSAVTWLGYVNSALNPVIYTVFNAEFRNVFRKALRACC
Assay: PDSP secondary radioligand binding assay
Experimental: Primary and secondary radioligand binding assays are performed. In general, the primary assay is run at very high ligand (compound) concentration as a broad screen to determine whether a compound binds to a particular receptor. If greater than 50% inhibition at 10 μM (high concentration of compound) at a particular receptor is determined, a secondary assay is performed on that receptor. Data from the secondary assay is the binding affinity (Ki value).
This assay is used to test binding to receptors such as the serotonin receptors: 5-HT1A, 5-HT1B, 5-HT1D, 5-HT1E, 5-HT2A, 5-HT2B, 5-HT2C, 5-HT3, 5-HT5A, 5-HT6 and 5-HT7. The protocol is adapted from Roth et al. J. Pharmacol. Exp. Ther. 1986, 238, 480-485 and Roth et al. J. Pharmacol. Exp. Ther. 1994, 268, 1403-1410. The assay buffer is Standard Binding Buffer (50 mM Tris-HCl, 10 mM MgCl2, 0.1 mM EDTA, pH 7.4). The membrane fraction source is transiently or stably transfected cell lines (e.g., HEK293, COS, CHO, NIH3T3).
A solution of the compound to be tested is prepared as a 1 mg/mL stock in Standard Binding Buffer or DMSO according to its solubility. A similar stock of a reference compound (positive control) is also prepared.
Radioligand (see Table 41) is diluted to five times the assay concentration (see Table 21) in Standard Binding Buffer. […]
The 250 μL reactions are incubated at room temperature and shielded from light (to prevent photolysis of light-sensitive ligands) for 1.5 hours, then harvested by rapid filtration onto Whatman GF/B glass fiber filters pre-soaked with 0.3% polyethyleneimine using a 96-well Brandel harvester. […] The tubes are capped, labeled, and counted by liquid scintillation counting. For higher throughput assays, bound radioactivity is harvested onto 0.3% polyethyleneimine-treated, 96-well filter mats using a 96-well Filtermate harvester. The filter mats are dried, then scintillant is melted onto the filters, and the radioactivity retained on the filters is counted in a Microbeta scintillation counter. […]

**Q.** Which Ki does the source give for `CCCOc1cc2c(cn1)[nH]c1ccncc12` [Compound 2, 8-Propoxypyridino[4′,3′-5,4]pyrrolo[3,2-c]pyridine hydrochloride] here?
**A.** 7.5 µM

Source: patent publication US8268854B2, “Aza-beta-carbolines and methods of using same” (The UWM Research Foundation, Inc., priority 2008, dated 2012)
